For series [1], the system named is HeLa cells. The series is described as follows: Re-adhesion assay. The note with it: 10× IC50, 1 h. In kind it is cell-based, human. Here is the method:
Figure 7 (A–E) Wound healing assay. The monolayer of HeLa cells was scratched with a 10 μL tip, and a starving medium containing the tested complexes was added. The shots were taken at times 0 and 24 h. (A) Control, non-treated cells; (B) cells treated with complex 3; (C) cells treated with complex 4. […] (E) Evaluation of wound healing assay. Bars represent gap size vs. Control (100%), following a 24 h incubation with the investigated compounds. Light gray bars: complex 3; dark gray bars: complex 4; black bar: complex 2. (F) Re-adhesion assay. […] Following trypsinization, the cells were resuspended in Dulbecco’s modified Eagle medium (DMEM), counted, left to reconstitute adhesive membrane proteins for 30 min, and re-seeded at the density of 3× 10^4 cells/100 μL/well. After 30 min of incubation at 37 °C, the re-adhesion activity was determined as described in the Experimental Section. […]
HeLa cells were grown in 6-well plates for 24 h. […] Following the treatment, the cells were trypsinized, washed, and resuspended in fresh serum-free medium, counted, and left at room temperature for 30 min to allow surface receptor reconstitution. […] The number of adhered cells was determined with sulforhodamine B (SRB) assay. […] The bound SRB was dissolved in 10 mM Tris base (pH 10.5), and the absorbance was recorded at 570 nm with an Absorbance Reader (SUNRISE TECAN, SCHOELLER). […]

Another series has as its system A2780cisR. As to the kind of experiment: MTT antiproliferative assay, 72 h. The class given is cell-based, human. The note with it: MTT, 72 h incubation, mean ± SD; read-out: IC50 A2780cisR.
For the next series, the system named is A2780. As to the kind of experiment: MTT antiproliferative assay, 72 h. In kind it is cell-based, human. The note with it: MTT, 72 h incubation, mean ± SD; read-out: IC50 A2780. For orientation: Tetrazolium dyes change colour on reduction, which living cells bring about.
Another series concerns HCT-116. As to the kind of experiment: MTT antiproliferative assay, 72 h. In kind it is cell-based, human. The note with it: MTT, 72 h incubation, mean ± SD; read-out: IC50 HCT-116.
A further series has as its system MCF-7. The series is described as follows: MTT antiproliferative assay, 72 h. In kind it is cell-based, human. Particulars: MTT, 72 h incubation, mean ± SD; read-out: IC50 MCF-7.
The test system of another series is HeLa. As to the kind of experiment: MTT antiproliferative assay, 72 h. In kind it is cell-based, human. The note with it: for increase of antiproliferative activity relative to Pt(IV) complex 2: IC50, Table 1; for IC50: MTT, 72 h incubation, mean ± SD, read-out: IC50 HeLa.
The subject of the next series is COX-2 in HeLa cells. The series is described as follows: Western blotting of COX-2. The class given is cell-based, human. Particulars: 24 h, 1×, 3× IC50, Western blot. As to the method: (B) Quantitative evaluation of Western blotting data; the relative expression of COX-2 normalized to GAPDH. Data represents the mean ± SD of two experiments. The stars indicate the statistical significance of difference vs control determined with the Student t-test (*p < 0.05, **p < 0.01, ***p < 0.001).
HeLa cells were seeded in 60 mm dishes at a density of 3 × 10^5 cells/dish and cultured for 20 h. The cells were then treated with the tested compounds at concentrations indicated in the text. After 24 h of treatment, the cells were scraped, washed, and pelleted. […] 4–20% SDS-PAGE (sodium dodecyl sulfate-polyacrylamide gel electrophoresis) (Mini-PROTEAN TGX Precast Gel) was used to resolve the proteins. After transferring to the polyvinylidene fluoride membrane, the proteins were detected using appropriate antibodies: anti-GAPDH antibody (mouse, Sigma-Aldrich), Anti-COX-2 (rabbit, Abcam), Anti-α-, β-, or γ-tubulin (all rabbit, Abcam), Anti-β-actin (mouse, Abcam), Goat Anti-Rabbit IgG(HRP) (Abcam; HRP = horseradish peroxidase), and Goat Anti-Mouse IgG(HRP) (ThermoFisher Scientific). SignalFire ECL Reagent (A + B) was used as a substrate for HRP, and the luminescence was recorded with Amersham Imager 680. The densities in the images were assessed with the Aida image analysis software.
In general terms: In western blotting, separated proteins are transferred to a membrane and probed.

Series [2] has as its system HeLa cells. As to the kind of experiment: Wound healing assay. The class given is cell-based, human. Particulars: 24 h, multiples of IC50,72h. Here is the method: Figure 7 (A–E) Wound healing assay. The monolayer of HeLa cells was scratched with a 10 μL tip, and a starving medium containing the tested complexes was added. The shots were taken at times 0 and 24 h. (A) Control, non-treated cells; (B) cells treated with complex 3; (C) cells treated with complex 4. […] (E) Evaluation of wound healing assay. Bars represent gap size vs. Control (100%), following a 24 h incubation with the investigated compounds. Light gray bars: complex 3; dark gray bars: complex 4; black bar: complex 2. (F) Re-adhesion assay. […] Following trypsinization, the cells were resuspended in Dulbecco’s modified Eagle medium (DMEM), counted, left to reconstitute adhesive membrane proteins for 30 min, and re-seeded at the density of 3× 10^4 cells/100 μL/well. After 30 min of incubation at 37 °C, the re-adhesion activity was determined as described in the Experimental Section. Data represents mean ± SD, n = 8; *p < 0.05, **p < 0.01, ***p < 0.001.
HeLa cells were grown close to confluence in 6-well plates in a complete medium, and then the medium was replaced with a serum-free medium [supplemented with 0.1% bovine serum albumin (BSA)], and the cells were incubated for an additional 24 h. The HeLa monolayers were scratched with a 10 μL pipet tip, and the cells were washed twice with PBS to remove peeled cells and treated with tested compounds at indicated concentrations. The scratched areas were shot immediately after the complex addition and then after 24 h with a Canon EOS 1200D camera attached to an Olympus CKX41 inverted microscope with a 10×/0.25 phase contrast objective. Digital images were taken by the QuickPHOTO MICRO 3.1 program (PROMICRA, Prague, Czech Republic) and processed with the TScratch analysis software (ETH Zürich, Switzerland). The cell’s ability to migrate into the open area was expressed as a percentage of control.

Series [3] can be described thus: Partition coefficient, shake-flask method. In kind it is physicochemical. The note with it: octanol/water. Here is the method: The “shake flask” method was used to measure the partition coefficients (P) of platinum compounds. The compounds were dissolved in octanol-saturated water (OSW) containing 200 mM NaCl. […] After careful separation of the layers with a fine-tip pipet, the Pt content in individual phases was determined by flameless atomic absorption spectrometry. The partition coefficients were calculated as the concentration ratio of the compound in the octanol layer to that in the aqueous layer, log P = log([Pt]WSO/[Pt]OSW).

What is called IC50 is the concentration needed to halve the response being measured. As for `Cc1c(C)c2c3c4c1=CC=C[N]4[Pt][N]3C=CC=2.NCCNC(=O)Cc1ccccc1Nc1c(Cl)cccc1Cl.NCCNC(=O)Cc1ccccc1Nc1c(Cl)cccc1Cl.N[C@H]1CCCC[C@@H]1N` [complex 4, Pt^IV56MeSS(DCF)2], the “re-adhesion to the growth surface” value in the series with HeLa cells [1] is reported as “lower the ability of HeLa cells to re-adhere to the growth surface”. The IC50 in the series on A2780cisR amounted to 80 ± 20 nM; in the series on A2780 it was 50 ± 10 nM; in the series with HCT-116 it was 180 ± 50 nM; in the series with MCF-7, 330 ± 50 nM; in the series with HeLa, 310 ± 80 nM. Moreover, the “increase of antiproliferative activity relative to Pt(IV) complex 2” value in the series on HeLa came out at 9 fold. Moreover, the “intracellular level of COX-2 protein” value in the series on COX-2 in HeLa cells is on record as “able to reduce the intracellular level of COX-2 protein”. Moreover, in the series on HeLa cells [2], the “migration activity (wound closing)” value was “reduced the ability of HeLa cells to close artificial wounds”. In addition, in [3], the “log P” value is on record as “–1.4 ± 0.1”.
On to `Cc1c(C)c2c3c4c1=CC=C[N]4[Pt]([Cl])[N]3C=CC=2.NCCNC(=O)Cc1ccccc1Nc1c(Cl)cccc1Cl.N[C@H]1CCCC[C@@H]1N` [complex 3, Pt(IV)56MESSenDCFCl], for which, in the series with HeLa cells [1], the “re-adhesion to the growth surface” value is on record as “lower the ability of HeLa cells to re-adhere to the growth surface”. Further, the IC50 was 130 ± 20 nM in the series on A2780cisR; 120 ± 20 nM in the series on A2780; 200 ± 30 nM with HCT-116; 400 ± 100 nM with MCF-7; 600 ± 100 nM with HeLa. Also, the “increase of antiproliferative activity relative to Pt(IV) complex 2” value in the series with HeLa worked out at 4.5 fold. In addition, in the series with COX-2 in HeLa cells, the “intracellular level of COX-2 protein” value was “able to reduce the intracellular level of COX-2 protein”. In the series with HeLa cells [2], the “migration activity (wound closing)” value is “reduced the ability of HeLa cells to close artificial wounds”. Besides, the “log P” value in series [3] was “–1.7 ± 0.1”.

Values taken from publication PMC10291556 (Journal of Medicinal Chemistry, 2023).
